# Data taken from patent publication US9163015B2, “Pyrazolopyridine, pyrarolopyrazine, pyrazolopyrimidine, pyrazolothiophene and pyrazolothiazole compounds as MGLUR4 allosteric potentiators, compositions, and methods of treating neurological dysfunction” (Vanderbilt University, priority 2010, dated 2015).
# Biological target: human mGluR4 (Homo sapiens (Human), UniProt Q14833)
# Experiment: mGluR4 potentiation assay, CHO cells transfected with human mGluR4, Ca2+-sensitive fluorescent dye, EC20 agonist
# Assay type: cell-based
# Settings: potentiation of mGluR4; table does not state human or rat receptor
# Experimental: The disclosed compounds and compositions can be evaluated for their ability to act as a potentiator of metabotropic glutamate receptor activity, in particular mGluR4 activity, by any suitable known methodology known in the art. For example, Chinese Hamster Ovary (CHO) cells transfected with human mGluR4 or HEK cells co-transfected with rat mGluR4 and the G-protein regulated Inwardly Rectifying Potassium channel (GIRK) were plated in clear bottom assay plates for assay in a Hamamatsu FDSS Fluorometric Plate Reader. The cells were loaded with either a Ca2+-sensitive fluorescent dye or the thallium responsive dye and the plates were washed and placed into a suitable kinetic plate reader. For human mGluR4 assays, a fluorescence baseline was established for 3-5 seconds, the disclosed compounds were then added to the cells, and the response in cells was measured. Approximately two and a half minutes later, a concentration of mGluR4 orthosteric agonist (e.g. glutamate or L-AP4) eliciting approximately 20% (EC20) of the maximal agonist response was added to the cells, and the response was measured. Two minutes later, a concentration of mGluR4 agonist (e.g. glutamate or L-AP4) eliciting 80% (EC80) of the maximal agonist response was added to the cells, and the response was measured. For rat mGluR4/GIRK experiments, a baseline was established for approximately five seconds, disclosed compounds were added, and either an EC20 or EC80 concentration of agonist was added approximately two and one half minutes later.
# The above described assay operated in two modes. In the first mode, a range of concentrations of the disclosed compounds are added to cells, followed by a single fixed concentration of agonist. If the compound acts as a potentiatior, an EC50 value for potentiation and a maximum extent of potentiation by the compound at this concentration of agonist is determined by non-linear curve fitting. If the compound acts as a noncompetitive antagonist, an IC50 value is determined by non-linear curve fitting. In the second mode, several fixed concentrations of the disclosed compounds are added to various wells on a plate, followed by a range in concentrations of agonist for each concentration of disclosed compound. The EC50 values for the agonist at each concentration of compound are determined by non-linear curve fitting. A decrease in the EC50 value of the agonist with increasing concentrations of the sample compound (a leftward shift of the agonist concentration-response curve) is an indication of the degree of mGluR4 potentiation at a given concentration of the sample compound. A decrease in the maximal response of the agonist with increasing concentrations of the sample compounds, with or without a rightward shift in agonist potency, is an indication of the degree of noncompetitive antagonism at mGluR4. The second mode also indicates whether the sample compounds also affect the maximum response to mGluR4 to agonists.
# human mGluR4, sequence (Q14833 33-912): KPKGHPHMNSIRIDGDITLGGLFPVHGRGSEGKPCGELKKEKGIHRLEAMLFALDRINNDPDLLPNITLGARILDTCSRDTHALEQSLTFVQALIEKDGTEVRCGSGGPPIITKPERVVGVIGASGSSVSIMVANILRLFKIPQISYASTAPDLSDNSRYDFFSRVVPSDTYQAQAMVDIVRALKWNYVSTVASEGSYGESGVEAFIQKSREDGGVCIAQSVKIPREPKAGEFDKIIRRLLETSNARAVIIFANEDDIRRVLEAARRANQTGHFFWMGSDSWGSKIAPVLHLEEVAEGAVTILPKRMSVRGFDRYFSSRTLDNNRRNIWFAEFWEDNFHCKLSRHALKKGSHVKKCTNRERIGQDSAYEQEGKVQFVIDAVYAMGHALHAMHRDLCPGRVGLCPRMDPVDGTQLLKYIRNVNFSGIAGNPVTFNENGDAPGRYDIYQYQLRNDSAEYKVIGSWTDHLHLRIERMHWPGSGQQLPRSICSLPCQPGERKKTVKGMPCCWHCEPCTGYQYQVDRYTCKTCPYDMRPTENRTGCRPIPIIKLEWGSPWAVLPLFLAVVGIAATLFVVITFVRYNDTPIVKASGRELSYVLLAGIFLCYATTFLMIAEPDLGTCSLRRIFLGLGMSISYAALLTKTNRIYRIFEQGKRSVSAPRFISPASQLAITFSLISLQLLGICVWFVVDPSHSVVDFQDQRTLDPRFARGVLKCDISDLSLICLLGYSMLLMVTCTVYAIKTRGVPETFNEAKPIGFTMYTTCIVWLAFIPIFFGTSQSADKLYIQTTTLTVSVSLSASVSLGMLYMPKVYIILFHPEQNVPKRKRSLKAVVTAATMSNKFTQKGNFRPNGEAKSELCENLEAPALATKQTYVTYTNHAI
row,EC50,Compound
1,6360 nM,"Clc1cccc(Nc2c[nH]c3cccnc23)c1 [Example 25, N-(3-chlorophenyl)-1H-pyrrolo[3,2-b]pyridin-3-amine]"
2,68 nM,"Cc1cc(Nc2n[nH]c3cccnc23)ccc1F [Example 82, N-(4-fluoro-3-methylphenyl)-1H-pyrazolo[4,3-b]pyridin-3-amine]"
3,> 10000 nM,"CN1C(=O)COc2cc(Nc3n[nH]c4cccnc34)ccc21 [Example 54, 7-((1H-pyrazolo[4,3-b]pyridin-3-yl)amino)-4-methyl-2H-benzo[b][1,4]oxazin-3(4H)-one]"
4,1540 nM,"Clc1ccc(Oc2ccc(Nc3n[nH]c4cccnc34)cc2Cl)cc1 [Example 81, N-(3-chloro-4-(4-chlorophenoxy)phenyl)-1H-pyrazolo[4,3-b]pyridin-3-amine]"
5,113 nM,"Clc1ccc(Nc2n[nH]c3cccnc23)cc1Cl [Example 68, N-(3,4-dichlorophenyl)-1H-pyrazolo[4,3-b]pyridin-3-amine]"
6,1420 nM,"Fc1ccc(Nc2n[nH]c3cccnc23)cc1 [Example 65, N-(4-fluorophenyl)-1H-pyrazolo[4,3-b]pyridin-3-amine]"
7,7380 nM,"Cc1cncc(Nc2n[nH]c3cccnc23)c1 [Example 33, N-(5-methylpyridin-3-yl)-1H-pyrazolo[4,3-b]pyridin-3-amine]"
8,961 nM,"c1ccc2ncc(Nc3n[nH]c4cccnc34)cc2c1 [Example 40, N-(1H-pyrazolo[4,3-b]pyridin-3-yl)quinolin-3-amine]"
9,108 nM,"Clc1cc(Nc2n[nH]c3cccnc23)ccc1Oc1cnccn1 [Example 66, N-(3-chloro-4-(pyrazin-2-yloxy)phenyl)-1H-pyrazolo[4,3-b]pyridin-3-amine]"
10,410 nM,"Fc1c(Cl)cc(Nc2n[nH]c3cccnc23)cc1Cl [Example 43, N-(3,5-dichloro-4-fluorophenyl)-1H-pyrazolo[4,3-b]pyridin-3-amine]"
11,410 nM,"Cc1ccc(Cl)cc1Nc1n[nH]c2cccnc12 [Example 78, N-(5-chloro-2-methylphenyl)-1H-pyrazolo[4,3-b]pyridin-3-amine]"
12,623 nM,"Fc1c(Cl)cccc1Nc1n[nH]c2cccnc12 [Example 17, N-(3-chloro-2-fluorophenyl)-1H-pyrazolo[4,3-b]pyridin-3-amine]"
13,885 nM,"COc1ccc(Nc2n[nH]c3cccnc23)cc1OC(F)F [Example 10, N-(3-(difluoromethoxy)-4-methoxyphenyl)-1H-pyrazolo[4,3-b]pyridin-3-amine]"
14,17300 nM,"Clc1cccc(CNc2n[nH]c3cccnc23)c1 [Example 50, N-(3-chlorobenzyl)-1H-pyrazolo[4,3-b]pyridin-3-amine]"
15,3590 nM,"Cn1ccc2ccc(Nc3n[nH]c4cccnc34)cc21 [Example 53, N-(1-methyl-1H-indol-6-yl)-1H-pyrazolo[4,3-b]pyridin-3-amine]"
16,282 nM,"COc1ccc(Nc2n[nH]c3cccnc23)cc1Cl [Example 8, N-(3-chloro-4-methoxyphenyl)-1H-pyrazolo[4,3-b]pyridin-3-amine]"
17,1020 nM,"Clc1cc(Nc2n[nH]c3cccnc23)cnc1Cl [Example 47, N-(5,6-dichloropyridin-3-yl)-1H-pyrazolo[4,3-b]pyridin-3-amine]"
18,7080 nM,"Fc1ccc(CNc2n[nH]c3cccnc23)cc1Cl [Example 51, N-(3-chloro-4-fluorobenzyl)-1H-pyrazolo[4,3-b]pyridin-3-amine]"
19,497 nM,"Fc1cc(Nc2n[nH]c3cccnc23)ccc1Oc1cc(C(F)(F)F)ccn1 [Example 75, N-(3-fluoro-4-((4-(trifluoromethyl)pyridin-2-yl)oxy)phenyl)-1H-pyrazolo[4,3-b]pyridin-3-amine]"
20,165 nM,"Cc1ccc(Nc2n[nH]c3cccnc23)cc1Cl [Example 83, N-(3-chloro-4-methylphenyl)-1H-pyrazolo[4,3-b]pyridin-3-amine]"
21,2150 nM,"FC(F)(F)c1ccc(Nc2n[nH]c3cccnc23)cc1Cl [Example 22, N-(3-chloro-4-(trifluoromethyl)phenyl)-1H-pyrazolo[4,3-b]pyridin-3-amine]"
22,43 nM,"Clc1cc(Cl)cc(Nc2n[nH]c3cccnc23)c1 [Example 69, N-(3,5-dichlorophenyl)-1H-pyrazolo[4,3-b]pyridin-3-amine]"
23,11500 nM,"CS(=O)(=O)c1ccc(Nc2n[nH]c3cccnc23)cc1F [Example 58, N-(3-fluoro-4-(methylsulfonyl)phenyl)-1H-pyrazolo[4,3-b]pyridin-3-amine]"

# More lines, now with the values behind:
row,Compound,EC50
1,"Clc1cc(Nc2n[nH]c3cccnc23)ccc1Oc1ncccn1 [Example 24, N-(3-chloro-4-(pyrimidin-2-yloxy)phenyl)-1H-pyrazolo[4,3-b]pyridin-3-amine]",116 nM
2,"CNc1ncc(Nc2n[nH]c3cccnc23)cc1Cl [Example 48, 3-chloro-N2-methyl-N5-(1H-pyrazolo[4,3-b]pyridin-3-yl)pyridine-2,5-diamine]",6440 nM
3,"O=C(c1cccc(C(F)(F)F)c1)c1ccc(Nc2n[nH]c3cccnc23)cc1Cl [Example 38, (4-((1H-pyrazolo[4,3-b]pyridin-3-yl)amino)-2-chlorophenyl)(3-(trifluoromethyl)phenyl)methanone]",3880 nM
4,"Fc1cc(Nc2n[nH]c3cccnc23)ccc1Oc1ncccn1 [Example 74, N-(3-fluoro-4-(pyrimidin-2-yloxy)phenyl)-1H-pyrazolo[4,3-b]pyridin-3-amine]",2760 nM
5,"Clc1cc(Nc2n[nH]c3cccnc23)ccn1 [Example 23, N-(2-chloropyridin-4-yl)-1H-pyrazolo[4,3-b]pyridin-3-amine]",1490 nM
6,"Cc1cc(Nc2n[nH]c3cccnc23)ccc1Cl [Example 7, N-(4-chloro-3-methylphenyl)-1H-pyrazolo[4,3-b]pyridin-3-amine]",164 nM
7,"CN1C(=O)COc2ccc(Nc3n[nH]c4cccnc34)cc21 [Example 55, 6-((1H-pyrazolo[4,3-b]pyridin-3-yl)amino)-4-methyl-2H-benzo[b][1,4]oxazin-3(4H)-one]",8140 nM
8,"Fc1ccc(Nc2n[nH]c3cccnc23)cc1C(F)(F)F [Example 71, N-(4-fluoro-3-(trifluoromethyl)phenyl)-1H-pyrazolo[4,3-b]pyridin-3-amine]",385 nM
9,"CN1C(=O)N(c2ccc(Nc3n[nH]c4cccnc34)cc2Cl)C(=O)C1C(C)(C)C (stereo not shown) [Example 35, 3-(4-((1H-pyrazolo[4,3-b]pyridin-3-yl)amino)-2-chlorophenyl)-5-(tert-butyl)-1-methylimidazolidine-2,4-dione]",753 nM
10,"Clc1cc(Nc2n[nH]c3cccnc23)cc(Cl)c1Cl [Example 42, N-(3,4,5-trichlorophenyl)-1H-pyrazolo[4,3-b]pyridin-3-amine]",721 nM
11,"COc1cc(Nc2n[nH]c3cccnc23)ccc1F [Example 11, N-(4-fluoro-3-methoxyphenyl)-1H-pyrazolo[4,3-b]pyridin-3-amine]",1030 nM
12,"O=C(c1ccccc1)c1ccc(Nc2n[nH]c3cccnc23)cc1Cl [Example 64, (4-((1H-pyrazolo[4,3-b]pyridin-3-yl)amino)-2-chlorophenyl)(phenyl)methanone]",351 nM
13,"Fc1cc(F)cc(Nc2n[nH]c3cccnc23)c1 [Example 85, N-(3,5-difluorophenyl)-1H-pyrazolo[4,3-b]pyridin-3-amine]",101 nM
14,"c1cnc2c(NCC3CCCCC3)n[nH]c2c1 [Example 49, N-(cyclohexylmethyl)-1H-pyrazolo[4,3-b]pyridin-3-amine]",5300 nM
15,"Cc1cc(C)cc(Nc2n[nH]c3cccnc23)c1 [Example 37, N-(3,5-dimethylphenyl)-1H-pyrazolo[4,3-b]pyridin-3-amine]",177 nM
16,"Clc1cc(Nc2n[nH]c3cccnc23)cnc1N1CCCC1 [Example 31, N-(5-chloro-6-(pyrrolidin-l-yl)pyridin-3-yl)-1H-pyrazolo[4,3-b]pyridin-3-amine]",1550 nM
17,"Fc1ccc(Nc2n[nH]c3cncnc23)cc1Cl [Example 26, N-(3-chloro-4-fluorophenyl)-1H-pyrazolo[4,3-d]pyrimidin-3-amine]",3070 nM
18,"Fc1cc(F)c(F)c(Nc2n[nH]c3cccnc23)c1 [Example 57, N-(2,3,5-trifluorophenyl)-1H-pyrazolo[4,3-b]pyridin-3-amine]",782 nM
19,"Fc1ncc(Cl)cc1Nc1n[nH]c2cccnc12 [Example 34, N-(5-chloro-2-fluoropyridin-3-yl)-1H-pyrazolo[4,3-b]pyridin-3-amine]",597 nM
20,"FC(F)(F)c1cccc(Nc2n[nH]c3cccnc23)c1 [Example 3, N-(3-(trifluoromethyl)phenyl)-1H-pyrazolo[4,3-b]pyridin-3-amine]",145 nM
